According to US20080167201A1, “Method For Synthesizing Derivative, Compound Library and Method For Constructing the Same, and Method For Screening” (priority 2004, published 2008):

How the values were obtained:
[1] = test system: EC17 cells derived from human esophageal cancer; assay: cell migration inhibition, scratch assay with EC17 cells; assay type: cell-based; conditions: compound added immediately after scratching, 24 hr incubation, microscopic observation (FIG. 4)
Protocol: 500 μl of suspension of EC17 cells derived from human esophageal cancer (1.5×10^5 cells/ml; RPMI1640 medium (Nissui)) was added to each well of a 48-well plate and incubated at 37° C. for 24 hr. Then, the cells were linearly scraped off by scratching the center of the bottom of each well in a straight line with a micropipette tip. Then, the supernatant of the culture broth was immediately removed. The well was washed with 300 μl of PBS^− (8 g/l NaCl, 0.2 g/l KCl, 0.916 g/l Na2HPO4, 0.2 g/l KH2PO4) carefully not to scrape the remaining cells, and 500 μl of a RPMI1640 medium containing 1% serum (FBS; manufactured by Tissue Culture Biologicals) was gently added to the well. Further, migrastatin or oxidized migrastatin was added thereto and incubated at 37° C. for 24 hr. In addition, a culture broth to which migrastatin and oxidized migrastatin were not added was similarly incubated as a control. After the incubation, how much the straight line formed with the micropipette tip was filled with cells which had migrated from surroundings was confirmed by microscopic observation to evaluate migration of the cells.

[2] = test system: HT-29 cells derived from human colon cancer; assay: ATP synthesis (ATP content by luciferase luciferin) in HT-29 cells; assay type: cell-based; conditions: 3 hr incubation, same concentration range as inhibits cell migration (FIG. 5)
Protocol: 1 ml of suspension of HT-29 cells derived from human colon cancer (4×10^5 cells/ml; RPMI1640 medium) was added to each well of a 24-well plate and incubated at 37° C. for 24 hr. Then, migrastatin or oxidized migrastatin was added thereto and incubated for 3 hr. In addition, a cultured broth to which migrastatin and oxidized migrastatin were not added was similarly incubated as a control. After the incubation, each well was washed twice with ice-cooled PBS^−. After an addition of 200 μl of 2% trichloroacetic acid, the plate was left at 4° C. for 30 min. The supernatant (160 μl) was neutralized with 36.8 μl of 0.5 N NaOH and used as a sample. This sample (160 μl) was added to 3 ml of PBS^− containing 4 mM MgCl2. Then, 40 μl of 4 mg/ml luciferase luciferin (Sigma) was added thereto and immediately the ATP content was measured with a single-photon monitor of a scintillation counter (LS-5000TD: BECKMAN COULTER). In addition, the ATP content under the conditions where the sample and luciferase luciferin were not added was measured as a blank value and was subtracted from each measurement value.

For `CO[C@H]1/C=C/CC/C=C/C(=O)O[C@H]([C@H](C)C(=O)CCCC2CC(=O)NC(=O)C2)/C(C)=C\[C@@H](C)[C@@H]1O` [migrastatin], the migration of cells ([1]; concentration of 30 μl/ml) was “completely inhibited”, the “inhibition of migration of cells over the concentration range” value [1] was “inhibited depending on the concentration of migrastatin” and the “inhibition of ATP synthesis” value [2] was “inhibited ATP synthesis”.
For `CO[C@H]1/C=C/CC/C=C/C(=O)O[C@H]([C@H](C)C(=O)CCCC2CC(=O)NC(=O)C2)/C(C)=C\[C@@H](C)C1=O` [oxidized migrastatin, migrastatin oxide], the “inhibition of migration of cells over the concentration range” value [1] was “inhibition effect was observed at almost the same concentration range” and the “inhibition of ATP synthesis” value [2] was “did not inhibit ATP synthesis at all”.
